From ChEMBL document CHEMBL1135557 (Bioorg Med Chem Lett, 2002)
≈ marks a conversion by molar mass, not a printed value.

What was measured:
PC-12 = test: In vitro cytotoxic activity (growth inhibition) of compound against PC-12 human cancer cell line was determined
[1] = biological target: Tubulin alpha chain (Sus scrofa) (UniProt P02550); test: Inhibitory binding percentage of compound towards colchicine site in tubulin using tubulin-[3H]colchicine as radioligand at a concentration of 200 uM
HCT-116 = test: In vitro cytotoxic activity (growth inhibition) of compound against HCT 116 cancer cell line was determined; format: functional; details: Homo sapiens
[2] = biological target: Tubulin alpha chain (Sus scrofa) (UniProt P02550); test: Inhibitory binding percentage of compound towards colchicine site in tubulin using tubulin-[3H]colchicine as radioligand at a concentration of 100 uM
Tubulin = Tubulin (Sus scrofa, UniProt P02554+P02550); test: Concentration of compound required to inhibit tubulin polymerization (Microtubule assembly) was determined by the turbidity formation after 20 min of incubation; format: functional

Chain of Tubulin alpha chain (Sus scrofa) (P02550 whole entry, looked up): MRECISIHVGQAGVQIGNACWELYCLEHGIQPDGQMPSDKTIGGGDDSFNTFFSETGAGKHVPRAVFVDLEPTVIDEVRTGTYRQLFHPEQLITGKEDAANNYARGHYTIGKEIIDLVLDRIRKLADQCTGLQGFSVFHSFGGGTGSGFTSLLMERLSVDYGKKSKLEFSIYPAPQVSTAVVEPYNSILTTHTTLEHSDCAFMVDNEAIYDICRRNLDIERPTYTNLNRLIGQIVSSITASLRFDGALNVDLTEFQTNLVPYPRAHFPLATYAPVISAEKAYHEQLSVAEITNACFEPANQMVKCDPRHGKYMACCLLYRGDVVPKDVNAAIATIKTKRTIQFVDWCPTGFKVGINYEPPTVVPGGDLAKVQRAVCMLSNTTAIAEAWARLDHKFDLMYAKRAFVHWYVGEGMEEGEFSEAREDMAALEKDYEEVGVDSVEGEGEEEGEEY

Structure (SMILES) | GI50 (PC-12) | Inhibitory binding [1] | GI50 (HCT-116) | Inhibitory binding [2] | IC50 (Tubulin)
Cc1c(/C=C/CN2CCN(c3cc(F)cc(F)c3)CC2)cnn1-c1ncccn1.Cl | 0.0625 µg/mL | 93% | 0.0701 µg/mL | 82% | 9.08 µM
Cc1c(/C=C/CN2CCN(c3cccc(Cl)c3)CC2)cnn1-c1ncccn1.Cl | 0.181 µg/mL | – | 0.254 µg/mL | – | 35.96 µM
CC[C@]1(O)C[C@@H]2CN(CCc3c([nH]c4ccccc34)[C@@](C(=O)OC)(c3cc4c(cc3OC)N(C)[C@H]3[C@@](O)(C(=O)OC)[C@H](OC(C)=O)[C@]5(CC)C=CCN6CC[C@]43[C@@H]65)C2)C1 [VINBLASTINE] | 0.0102 µg/mL (≈ 0.0126 µM) | – | 0.001 µg/mL (≈ 0.00123 µM) | – | –
Cc1c(/C=C/CN2CCN(c3cc(F)cc(F)c3)CC2)cnn1-c1nccc(N)n1.Cl | 0.0216 µg/mL | – | 0.0208 µg/mL | – | 11.05 µM
COc1cc2c(c(OC)c1OC)-c1ccc(OC)c(=O)cc1[C@@H](NC(C)=O)CC2 [COLCHICINE] | 0.0315 µg/mL (≈ 0.0789 µM) | 100% | 0.0084 µg/mL (≈ 0.021 µM) | 98% | –
Cc1c(/C=C/CN2CCN(c3cc(F)cc(F)c3)CC2)cnn1-c1ccnc(N)n1.Cl | 0.0199 µg/mL | – | 0.0329 µg/mL | – | 3.72 µM
